Literature values in patent publication US20130144636A1, “Method and System for Predicting Adverse Drug Reactions Using BioAssay Data” (The Board of Trustees of the Leland Stanford, Junior, …, priority 2011, published 2013).
Read-outs that look alike come from different tables or passages of the source.

How the values were obtained:
[1] = FDA drug label, DRUGDEX or literature case report
[2] = test system: interleukin-1 (IL-1); conditions: in vitro
[3] = test system: murine bone marrow; conditions: in vivo murine bone marrow micronucleus tests
[4] = in vitro mutagenesis tests such as the Ames test
[5] = biological target: glutathione-S-transferase μ (GSTP1) (Homo sapiens, UniProt P09211)
Sequence of glutathione-S-transferase μ (GSTP1) (P09211 2-210 limits assumed): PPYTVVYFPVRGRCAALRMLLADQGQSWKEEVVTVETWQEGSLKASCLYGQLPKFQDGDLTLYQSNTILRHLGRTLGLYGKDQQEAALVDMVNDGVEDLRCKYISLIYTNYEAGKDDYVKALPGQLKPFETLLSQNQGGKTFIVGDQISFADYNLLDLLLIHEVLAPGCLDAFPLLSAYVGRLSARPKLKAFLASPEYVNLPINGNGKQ

Compound: Oc1c(I)cc(Cl)c2cccnc12 [clioquinol]
- known adverse drug reaction in humans [1]: associated with subacute myelo-optic neuropathy (SMON) syndrome

Compound: CC(=O)Oc1cccc2c1C(=O)c1c(OC(C)=O)cc(C(=O)O)cc1C2=O [diacerein]
- inhibition of IL-1 synthesis [2]: directly inhibits the synthesis

Compound: Oc1ccc(O)cc1 [hydroquinone]
- genotoxic carcinogenic activity [3]: genotoxic carcinogenic activity
- genotoxic carcinogenic activity ([3]; listed as Hydroquinone): carcinogenic
- mutagenic activity in vitro [4]: but not in in vitro mutagenesis tests
- mutagenic activity in vitro ([4]; listed as Hydroquinone): inactive

Compound: CC(=O)Oc1ccccc1C(=O)Nc1ncc([N+](=O)[O-])s1 [nitazoxanide]
- inhibition of enzymatic activity [5]: inhibit the enzymatic activity
